From doi:10.1101/2022.05.23.493001v4 (biorxiv, 2022)

Tested on: STING in THP-1 cells (endogenous)
Assay: cells
Details: Homo sapiens, THP-1, 6 h, read-out: EC50 IFN-β THP-1

EC50: 6.6 µM
SMILES: CSc1c(Cl)ccc2c(=O)c3ccc(C(C)(C)C)cc3n(CC(=O)O)c12 [SNX281]
